{"source": "patent US20040249122A1", "about": "“Cationic, amphipathic beta-sheet peptides and uses thereof” (priority 2003, published 2004)", "key": {"[1]": {"assay": "Peptide-induced leakage from calcein-loaded LUV", "protocol": "Peptide-Induced Leakage from Calcein-Loaded LUV. The ability of the peptides to release calcein (MW 623) from LUV of varying lipid composition was compared. LUV were prepared as above, except that-the buffer consisted of 50 mM HEPES, 100 mM NaCl, 0.3 mM EDTA, 80 mM calcein, pH 7.4. Calcein-loaded vesicles were separated from free calcein by size-exclusion chromatography using a Sephadex G-50 column and calcein-free buffer. Calcein leakage was monitored using a Perkin-Elmer LS-500 luminescence spectrometer by measuring the time-dependent increase in fluorescence of calcein (excitation=490 nm, emission=520 nm). LUV containing 8 nmoles of lipid were added to 1.5 mL of buffer in a stirred cuvet at 25° C. An aliquot of peptide was added to achieve the desired lipid-to-peptide ratio (256 to 8). Complete leakage was determined by the addition of 20 μL of 10% Triton X-100. Each value represents at least nine different measurements using at least three different LUV preparations."}, "[2]": {"tested_on": "Escherichia coli (ATCC 25922)", "format": "cell-based", "settings": "ATCC 25922", "protocol": "(§1) Antimicrobial and Hemolytic Assays. Antimicrobial susceptibility testing against Staphylococcus aureus (ATCC 29213), Escherichia coli (ATCC 25922), and Pseudomonas aeruginosa (ATCC 27853) was performed using a modification of the National Committee for Clinical Laboratory Standards microdilution broth assay (22). Mueller-Hinton broth (BBL) was used for diluting the peptide stock solution and for diluting the bacterial inoculum. The inoculum was prepared from mid-logarithmic phase cultures. […] The final concentration of peptide solution ranged-from 0.25 to 256 μg/mL in two-fold dilutions. The final concentration of bacteria in the wells was 5×10^5 CFU/mL. Peptides were tested in duplicate. In addition to the test peptide, three standard peptides and a non-treated growth control were included to validate the assay. The microtiter plates were incubated overnight at 37° C. and the absorbance was measured at 600 nm. […] After incubation at 37° C. for 30 min, the suspension was centrifuged at 10,000×g for 10 min and the absorbance at 400 nm was measured."}, "[3]": {"tested_on": "Pseudomonas aeruginosa (ATCC 27853)", "format": "cell-based", "settings": "ATCC 27853", "protocol": "as §1"}, "[4]": {"tested_on": "Staphylococcus aureus (ATCC 29213)", "format": "cell-based", "settings": "ATCC 29213", "protocol": "as §1"}, "[5]": {"tested_on": "E. coli, S. aureus, and P. aeruginosa", "format": "cell-based", "protocol": "Antimicrobial and Hemolytic Assays. Antimicrobial susceptibility testing against Staphylococcus aureus (ATCC 29213), Escherichia coli (ATCC 25922), and Pseudomonas aeruginosa (ATCC 27853) was performed using a modification of the National Committee for Clinical Laboratory Standards microdilution broth assay (22). Mueller-Hinton broth (BBL) was used for diluting the peptide stock solution and for diluting the bacterial inoculum. The inoculum was prepared from mid-logarithmic phase cultures. Microtiter plate wells received aliquots-of 100 μL each of the inoculum and peptide dilution. The final concentration of peptide solution ranged-from 0.25 to 256 μg/mL in two-fold dilutions. The final concentration of bacteria in the wells was 5×10^5 CFU/mL. Peptides were tested in duplicate. In addition to the test peptide, three standard peptides and a non-treated growth control were included to validate the assay. The microtiter plates were incubated overnight at 37° C. and the absorbance was measured at 600 nm. […] Hemolysis at peptide concentrations of 500 μg/mL was determined using a 5% suspension of freshly drawn human erythrocytes, which had been washed twice in phosphate buffered saline. After incubation at 37° C. for 30 min, the suspension was centrifuged at 10,000×g for 10 min and the absorbance at 400 nm was measured. Complete hemolysis was determined by adding 0.2% Triton X-100 in place of the peptide."}}, "note": "“Also recorded” adds a separate entry of the source. Where a SMILES comes first, the peptide text is derived from it. The star is where a group is joined. Octanoyl = CCCCCCCC(=O)*", "data": [{"smiles": "CC(C)C[C@H](NC(=O)[C@H](CCCCN)NC(=O)[C@H](CC(C)C)NC(=O)[C@H](CCCCN)NC(=O)[C@H](CC(C)C)NC(=O)[C@H](CCCCN)NC(=O)[C@H](Cc1c[nH]c2ccccc12)NC(=O)[C@H](CCCCN)NC(=O)[C@H](CC(C)C)NC(=O)[C@H](CCCCN)NC(=O)[C@H](CC(C)C)NC(=O)[C@H](CCCCN)NC(=O)[C@H](CC(C)C)NC(=O)[C@@H](N)CCCCN)C(N)=O", "note": "[KL-14, K L K L K L K W K L K L K L-NH2] (H-KLKLKLKWKLKLKL-NH2; N-terminus assumed)", "values": [{"measurement": "calcein leakage from LUV (in words)", "setting": "[1]; LUVs from E. coli lipids", "value": "highly effective"}, {"measurement": "calcein leakage from LUV (in words)", "setting": "[1]; POPC (PC) LUV", "value": "quite lytic"}, {"measurement": "MIC E. coli", "setting": "[2]", "value": 32, "unit": "mg/L"}, {"measurement": "MIC Pseud. aerug", "setting": "[3]", "value": 16, "unit": "mg/L"}, {"measurement": "MIC Staph. aureus", "setting": "[4]", "value": 16, "unit": "mg/L"}, {"measurement": "MIC values", "setting": "[5]", "value": "4 to 16", "unit": "mg/L"}]}, {"smiles": "CC(C)C[C@H](NC(=O)[C@H](CCCCN)NC(=O)CNC(=O)[C@H](C)NC(=O)[C@H](CC(C)C)NC(=O)[C@H](CCCCN)NC(=O)[C@H](C)NC(=O)[C@H](CC(C)C)NC(=O)[C@H](CCCCN)NC(=O)CNC(=O)[C@H](C)NC(=O)[C@H](Cc1c[nH]c2ccccc12)NC(=O)[C@H](CCCCN)NC(=O)[C@H](C)NC(=O)[C@H](CC(C)C)NC(=O)[C@H](CCCCN)NC(=O)CNC(=O)[C@H](C)NC(=O)[C@H](CC(C)C)NC(=O)[C@@H](N)CCCCN)C(=O)N[C@@H](C)C(N)=O", "note": "[1,5-Hept, KLAGKLAKWAGKLAKLAGKLA-NH2] (H-KLAGKLAKWAGKLAKLAGKLA-NH2; N-terminus assumed)", "values": [{"measurement": "MIC E. coli", "setting": "[2]", "value": 8, "unit": "mg/L"}, {"measurement": "MIC Pseud. aerug", "setting": "[3]", "value": 16, "unit": "mg/L"}, {"measurement": "MIC Staph. aureus", "setting": "[4]", "value": 4, "unit": "mg/L"}, {"measurement": "antimicrobial activity (in words)", "setting": "[5]", "value": "relatively low MIC values"}]}, {"smiles": "CC[C@H](C)[C@H](NC(=O)[C@H](C)NC(=O)CNC(=O)[C@H](CCCCN)NC(=O)[C@@H](NC(=O)[C@H](CCCCN)NC(=O)[C@@H](NC(=O)[C@H](C)NC(=O)CNC(=O)[C@H](CCCCN)NC(=O)[C@H](Cc1c[nH]c2ccccc12)NC(=O)[C@H](CCCCN)NC(=O)[C@@H](NC(=O)[C@H](C)NC(=O)CNC(=O)[C@H](CCCCN)NC(=O)[C@@H](NC(=O)[C@@H](N)CCCCN)[C@@H](C)CC)[C@@H](C)CC)[C@@H](C)CC)[C@@H](C)CC)C(N)=O", "note": "[1,3-Hex, K I K G A I K W K G A I K I K G A I-NH2] (H-KIKGAIKWKGAIKIKGAI-NH2; N-terminus assumed)", "values": [{"measurement": "MIC E. coli", "setting": "[2]", "value": 8, "unit": "mg/L"}, {"measurement": "MIC Pseud. aerug", "setting": "[3]", "value": 16, "unit": "mg/L"}, {"measurement": "MIC Staph. aureus", "setting": "[4]", "value": 32, "unit": "mg/L"}, {"measurement": "antimicrobial activity (in words)", "setting": "[5]", "value": "appreciable antimicrobial activity"}]}, {"smiles": "CCCCCCCC(=O)N[C@@H](CCCCN)C(=O)N[C@@H](Cc1c[nH]c2ccccc12)C(=O)NCC(=O)N[C@@H](C)C(=O)N[C@@H](CCCCN)C(=O)N[C@H](C(N)=O)[C@@H](C)CC", "note": "[Oct-KIGAKI-6, Oct- K W G A K I-NH2] (Octanoyl-KWGAKI-NH2)", "values": [{"measurement": "MIC E. coli", "setting": "[2]", "value": ">256", "unit": "mg/L"}, {"measurement": "MIC Pseud. aerug", "setting": "[3]", "value": ">256", "unit": "mg/L"}, {"measurement": "MIC Staph. aureus", "setting": "[4]", "value": ">256", "unit": "mg/L"}, {"measurement": "antimicrobial activity (in words)", "setting": "[5]", "value": "no activity"}]}, {"smiles": "CC(C)C[C@H](NC(=O)CNC(=O)[C@H](C)NC(=O)[C@H](CCCCN)NC(=O)[C@H](CC(C)C)NC(=O)[C@H](CCCCN)NC(=O)[C@H](C)NC(=O)[C@H](CC(C)C)NC(=O)CNC(=O)[C@H](C)NC(=O)[C@H](CCCCN)NC(=O)[C@H](Cc1c[nH]c2ccccc12)NC(=O)[C@H](CCCCN)NC(=O)[C@H](C)NC(=O)[C@H](CC(C)C)NC(=O)CNC(=O)[C@H](C)NC(=O)[C@H](CCCCN)NC(=O)[C@H](CC(C)C)NC(=O)[C@@H](N)CCCCN)C(=O)N[C@@H](C)C(N)=O", "note": "[1,3-Hept, KLKAGLAKWKAGLAKLKAGLA-NH2] (H-KLKAGLAKWKAGLAKLKAGLA-NH2; N-terminus assumed)", "values": [{"measurement": "MIC E. coli", "setting": "[2]", "value": 32, "unit": "mg/L"}, {"measurement": "MIC Pseud. aerug", "setting": "[3]", "value": ">256", "unit": "mg/L"}, {"measurement": "MIC Staph. aureus", "setting": "[4]", "value": 256, "unit": "mg/L"}, {"measurement": "antimicrobial activity (in words)", "setting": "[5]", "value": "slightly active"}]}, {"smiles": "CCCCCCCC(=O)N[C@@H](CCCCN)C(=O)N[C@@H](CC(C)C)C(=O)N[C@@H](CCCCN)C(=O)N[C@@H](Cc1c[nH]c2ccccc12)C(=O)N[C@@H](CCCCN)C(=O)N[C@@H](CC(C)C)C(=O)N[C@@H](CCCCN)C(=O)N[C@@H](CC(C)C)C(=O)N[C@@H](CCCCN)C(=O)N[C@@H](CC(C)C)C(=O)N[C@@H](CCCCN)C(N)=O", "note": "[Oct-Beta-11, Oct- K L K W K L K L K L K-NH2] (Octanoyl-KLKWKLKLKLK-NH2)", "values": [{"measurement": "MIC E. coli", "setting": "[2]", "value": 16, "unit": "mg/L"}, {"measurement": "MIC Pseud. aerug", "setting": "[3]", "value": 8, "unit": "mg/L"}, {"measurement": "MIC Staph. aureus", "setting": "[4]", "value": 4, "unit": "mg/L"}, {"measurement": "antimicrobial activity (in words)", "setting": "[5]", "value": "reasonable antimicrobial activity"}]}, {"smiles": "CC(C)C[C@H](NC(=O)CNC(=O)[C@H](C)NC(=O)[C@H](CC(C)C)NC(=O)[C@H](CCCCN)NC(=O)[C@H](C)NC(=O)[C@H](CCCCN)NC(=O)[C@H](CC(C)C)NC(=O)CNC(=O)[C@H](C)NC(=O)[C@H](Cc1c[nH]c2ccccc12)NC(=O)[C@H](CCCCN)NC(=O)[C@H](C)NC(=O)[C@H](CCCCN)NC(=O)[C@H](CC(C)C)NC(=O)CNC(=O)[C@H](C)NC(=O)[C@H](CC(C)C)NC(=O)[C@@H](N)CCCCN)C(=O)N[C@@H](CCCCN)C(=O)N[C@@H](C)C(N)=O", "note": "[1,6-Hept, KLAGLKAKWAGLKAKLAGLKA-NH2] (H-KLAGLKAKWAGLKAKLAGLKA-NH2; N-terminus assumed)", "values": [{"measurement": "MIC E. coli", "setting": "[2]", "value": ">256", "unit": "mg/L"}, {"measurement": "MIC Pseud. aerug", "setting": "[3]", "value": ">256", "unit": "mg/L"}, {"measurement": "MIC Staph. aureus", "setting": "[4]", "value": ">256", "unit": "mg/L"}, {"measurement": "antimicrobial activity (in words)", "setting": "[5]", "value": "devoid of antimicrobial activity"}]}, {"smiles": "CC(C)C[C@H](NC(=O)[C@H](CCCCN)NC(=O)[C@H](CC(C)C)NC(=O)[C@H](CCCCN)NC(=O)[C@H](CC(C)C)NC(=O)[C@H](CCCCN)NC(=O)[C@H](CC(C)C)NC(=O)[C@H](CCCCN)NC(=O)[C@H](CC(C)C)NC(=O)[C@H](CCCCN)NC(=O)[C@H](Cc1c[nH]c2ccccc12)NC(=O)[C@H](CCCCN)NC(=O)[C@H](CC(C)C)NC(=O)[C@H](CCCCN)NC(=O)[C@H](CC(C)C)NC(=O)[C@H](CCCCN)NC(=O)[C@H](CC(C)C)NC(=O)[C@@H](N)CCCCN)C(N)=O", "note": "[KL-18, K L K L K L K W K L K L K L K L K L-NH2] (H-KLKLKLKWKLKLKLKLKL-NH2; N-terminus assumed)", "values": [{"measurement": "calcein leakage from LUV (in words)", "setting": "[1]; LUVs from E. coli lipids", "value": "highly effective"}, {"measurement": "calcein leakage from LUV (in words)", "setting": "[1]; POPC (PC) LUV", "value": "most potent; also recorded: quite lytic"}, {"measurement": "MIC E. coli", "setting": "[2]", "value": 64, "unit": "mg/L"}, {"measurement": "MIC Pseud. aerug", "setting": "[3]", "value": 32, "unit": "mg/L"}, {"measurement": "MIC Staph. aureus", "setting": "[4]", "value": 16, "unit": "mg/L"}, {"measurement": "MIC values", "setting": "[5]", "value": "4 to 16", "unit": "mg/L"}]}]}
